The record followed here is patent US20070032477A1, “Pteridine derivatives useful for making pharmaceutical compositions” (priority 2003, published 2007).

The test system of experiment [1] is production of IL-1 β by PBMC in response to stimulation by LPS. In words: IL-1 β assay. Type of experiment: cell-based, human. The following applies: LPS 1 μg/ml, 72 hours, sandwich ELISA. The method, then:
Peripheral blood mononuclear cells (herein referred as PBMC), in response to stimulation by lipopolysaccharide (LPS), a gram-negative bacterial endotoxin, produce various […], in particular human IL-1 β. Inhibition of the activation of PBMC can therefore be measured by the level of suppression of the production of IL-1 β by PBMC in response to stimulation by LPS.
Such inhibition measurement was performed as follows: PBMC were isolated from heparinized peripheral blood by density gradient centrifugation over Lymphoprep (commercially available from Nycomed, Norway). LPS was then added to the PMBC suspension in complete medium (10^6 cells/ml) at a final concentration of 1 μg/ml. The pteridine derivative to be tested was added at different concentrations (0.1 μM, 1 μM and 10 μM) and the cells were incubated at 37° C. for 72 hours in 5% CO2. The supernatants were collected, then IL-1 β concentrations were measured with an anti-IL-1 β antibody in a sandwich ELISA. The calorimetric reading of the ELISA was measured by a Multiskan RC plate reader (commercially available from ThermoLabsystems, Finland) at 450 nm (reference wavelength: 690 nm). Data analysis was performed with Ascent software 2.6. (also from ThermoLabsystems, Finland): a standard curve (recombinant human IL-1 β) was drawn and the amount (pg/ml) of each sample on the standard curve was determined.
The % suppression of human IL-1 β by the pteridine derivatives (drugs) of this invention was calculated using the formula: [formula]

Experiment [2] has as its system mixed lymphocyte reaction (PBMC with allogeneic PBMC or Eppstein-Barr Virus-transformed human B cells as stimulator cells). The experiment is described as follows: Mixed lymphocyte reaction (MLR) assay. Type of experiment: cell-based. Particulars: lowest concentration giving 50% suppression of the MLR; [3H]-thymidine.
Experiment [3] relates to production of TNF-α by PBMC in response to stimulation by LPS. The experiment is described as follows: TNF-α assay. Particulars: LPS 1 μg/ml, 72 hours, sandwich ELISA. In kind it is cell-based, human. In a few lines: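 Cells were LPS-stimulated (1 μg/ml final) peripheral blood mononuclear cells at 10^6/ml, exposed 72 h at 37 °C to 0.1, 1 or 10 μM test compound.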

A word on the IC50: it is the midpoint of a concentration-inhibition curve. Low values mean greater potency in that assay, high ones weaker potency in that assay. For “2-amino-4-(1-butylpiperazino)-6-(3,4-dimethoxyphenyl)pteridine [Example 125]”, the 50% inhibitory concentration (IC50) in experiment [1] is 7500 nM; in experiment [2], 800 nM.

For the compound “2-amino-4-(1-cyclopentylpiperazino)-6-(3,4-dimethoxyphenyl)pteridine [Example 124]”, the half-maximal inhibitory concentration (IC50) is 400 nM in experiment [3] and 5000 nM in experiment [1].

“2-amino-4-(1-isopropylpiperazino)-6-(3,4-dimethoxyphenyl)pteridine [Example 126]”: the half-maximal inhibitory concentration (IC50) in experiment [1] is 3700 nM; in experiment [2] it was 4900 nM.

Regarding “2-amino-4-(3-(piperazin-1-yl)-propionic acid ethyl ester)-6-(3,4-dimethoxyphenyl)pteridine [Example 134]”, the 50% inhibitory concentration (IC50) in experiment [3] came to 70 nM; in experiment [1], 1200 nM.

For the compound “2-amino-4-((1-phenylethyl)-piperazin-1-yl)-6-(3,4-dimethoxyphenyl)pteridine [Example 152]”, the results for the half-inhibitory concentration (IC50) in experiment [3], in experiment [1] and in experiment [2] were 300 nM, 3600 nM and 1200 nM, respectively.

Take “2-amino-4-((2-pyridyl)-piperazin-1-yl)-6-(3,4-dimethoxyphenyl)pteridine [Example 146]”: the IC50 was 200 nM in experiment [3], 5000 nM in experiment [1] and 200 nM in experiment [2].

As for “2-amino-4-((3-dichlorophenyl)-piperazin-1-yl)-6-(3,4-dimethoxyphenyl)pteridine [Example 151]”, the IC50 in experiment [3] worked out at 100 nM; in experiment [1], 3700 nM.

“2-amino-4-((3-methoxyphenyl)-piperazin-1-yl)-6-(3,4-dimethoxyphenyl)pteridine [Example 148]”: the 50% inhibitory concentration (IC50) in experiment [3] came to 300 nM; in experiment [1], 7200 nM; in experiment [2] it was 300 nM.

With `COc1ccc(-c2cnc3nc(N)nc(N4CCN(C(=O)c5ccc(Cl)cc5)CC4)c3n2)cc1OC` [Example 12], the IC50 was determined as 200 nM in experiment [3], 5000 nM in experiment [1] and 300 nM in experiment [2].

For the compound `COc1ccc(-c2cnc3nc(N)nc(N4CCN(C(=O)CCc5ccccc5)CC4)c3n2)cc1OC` [Example 15, 2-amino-4-[(N-hydrocinnamoyl)-piperazin-1-yl]-6-(3,4-dimethoxyphenyl)pteridine], the IC50 amounted to 10 nM in experiment [3], 7000 nM in experiment [1] and 100 nM in experiment [2].

Take `COc1ccc(-c2cnc3nc(N)nc(N4CCN(C(=O)N(C(C)C)C(C)C)CC4)c3n2)cc1OC` [Example 20, 2-amino-4-[(N-diisopropylcarbamoyl)-piperazin-1-yl]-6-(3,4-dimethoxy-phenyl)pteridine]: the half-inhibitory concentration (IC50) in experiment [3] worked out at 30 nM; in experiment [1], 8500 nM; in experiment [2] it was 500 nM.

Take `CCCCCOc1ccc(C(=O)N2CCN(c3nc(N)nc4ncc(-c5ccc(OC)c(OC)c5)nc34)CC2)cc1` [Example 21, 2-amino-4-[N-(4-pentoxybenzoyl)-piperazin-1-yl]-6-(3,4-dimethoxy-phenyl)pteridine]: the IC50 in experiment [1] turned out to be 6700 nM; in experiment [2], 6000 nM.

`COc1ccc(-c2cnc3nc(N)nc(N4CCN(C(=O)Cc5cccs5)CC4)c3n2)cc1OC` [Example 36, 2-amino-4-[(N-2-thiophenacetyl)-piperazin-1-yl]-6-(3,4-dimethoxy-phenyl)pteridine]: the IC50 was 300 nM in experiment [3], 800 nM in experiment [1] and 800 nM in experiment [2].

Take `COc1ccc(-c2cnc3nc(N)nc(N4CCN(C(=O)C=Cc5ccccc5)CC4)c3n2)cc1OC` [Example 37, 2-amino-4-[(N-cinnamoyl)-piperazin-1-yl]-6-(3,4-dimethoxyphenyl)pteridine]: the results for the IC50 in experiment [3], in experiment [1] and in experiment [2] were 100 nM, 3300 nM and below 1 nM, respectively.

With `COc1ccc(-c2cnc3nc(N)nc(N4CCN(C(=O)c5cccc6ccccc56)CC4)c3n2)cc1OC` [Example 46], the IC50 in experiment [3] turned out to be 200 nM; in experiment [1], 800 nM.

In the case of `COc1ccc(-c2cnc3nc(N)nc(N4CCN(C(=S)N(C)C)CC4)c3n2)cc1OC` [Example 49, 2-amino-4-[(N-dimethylthiocarbamoyl)-piperazin-1-yl]-6-(3,4-dimethoxy-phenyl)pteridine], the IC50 amounted to 70 nM in experiment [3], 2200 nM in experiment [1] and 400 nM in experiment [2].

As for `COc1ccc(-c2cnc3nc(N)nc(N4CCN(C(=O)Oc5ccccc5)CC4)c3n2)cc1OC` [Example 50, 2-amino-4-[(N-phenoxycarbonyl)-piperazin-1-yl]-6-(3,4-dimethoxy-phenyl)pteridine], the half-inhibitory concentration (IC50) in experiment [3] came to 20 nM; in experiment [1], 5500 nM; in experiment [2], 65 nM.

`CC(=O)N1CCN(c2nc(N)nc3ncc(-c4ccc(C)cc4)nc23)CC1` [Example 56, 2-amino-4-(N-acetylpiperazin-1-yl)-6-(4-tolyl)pteridine]: the concentration for half-maximal inhibition (IC50) in experiment [3] was determined as 3700 nM; in experiment [1], 8700 nM; in experiment [2] it was 2800 nM.

Take `CC(=O)N1CCN(c2nc(N)nc3ncc(-c4ccc(F)cc4)nc23)CC1` [Example 57, 2-amino-4-(N-acetylpiperazin-1-yl)-6-(4-fluoro-phenyl)pteridine]: the half-maximal inhibitory concentration (IC50) in experiment [1] turned out to be 9500 nM; in experiment [2], 1900 nM.

On to `COc1ccc(-c2cnc3nc(N)nc(N4CCN(c5ccccc5)CC4)c3n2)cc1OC` [Example 64, 2-amino-4-(N-phenylpiperazin-1-yl)-6-(3,4-dimethoxyphenyl)pteridine], for which the half-inhibitory concentration (IC50) is 50 nM in experiment [3], 4400 nM in experiment [1] and 400 nM in experiment [2].

With `COc1ccc(-c2cnc3nc(N)nc(N4CCN(Cc5ccccc5)CC4)c3n2)cc1OC` [Example 65, 2-amino-4-(N-benzylpiperazin-1-yl)-6-(3,4-dimethoxyphenyl)pteridine], the IC50 worked out at 95 nM in experiment [3] and 3500 nM in experiment [1].

As to `COc1ccc(OC(=O)N2CCN(c3nc(N)nc4ncc(-c5ccc(OC)c(OC)c5)nc34)CC2)cc1` [Example 91, 2-amino-4-[(N-4-methoxy-phenoxy-carbonyl)-piperazin-1-yl]-6-(3,4-dimethoxy-phenyl)pteridine], the half-maximal inhibitory concentration (IC50) in experiment [3] worked out at 60 nM; in experiment [1] it was 4200 nM; in experiment [2], 52 nM.

`COc1ccc(-c2cnc3nc(N)nc(N4CCN(C(=O)Oc5ccc(F)cc5)CC4)c3n2)cc1OC` [Example 92, 2-amino-4-[(N-4-fluoro-phenoxy-carbonyl)-piperazin-1-yl]-6-(3,4-dimethoxyphenyl)pteridine]: the IC50 turned out to be 60 nM in experiment [3], 8600 nM in experiment [1] and 50 nM in experiment [2].

Take `COc1ccc(-c2cnc3nc(N)nc(N4CCN(C(=O)Oc5ccccc5OC)CC4)c3n2)cc1OC` [Example 93]: the concentration for half-maximal inhibition (IC50) in experiment [3] was determined as 50 nM; in experiment [1], 4500 nM; in experiment [2], 70 nM.

In the case of `COc1ccc(-c2cnc3nc(N)nc(N4CCN(C(=O)OCC(C)C)CC4)c3n2)cc1OC` [Example 95, 2-amino-4-[N-isobutoxy-carbonyl-piperazin-1-yl]-6-(3,4-dimethoxyphenyl)pteridine], the figures for the IC50 in experiment [3], in experiment [1] and in experiment [2] were 100 nM, 1000 nM and 120 nM, respectively.

As for `COc1ccc(-c2cnc3nc(N)nc(N4CCN(Cc5ccc(Cl)cc5)CC4)c3n2)cc1OC` [Example 139, 2-amino-4-((4-chlorobenzyl)piperazin-1-yl)-6-(3,4-dimethoxyphenyl)pteridine], the concentration for half-maximal inhibition (IC50) in experiment [3] turned out to be 400 nM; in experiment [1], 1200 nM.

With `COc1ccc(-c2cnc3nc(N)nc(N4CCN(c5cccc(C(F)(F)F)c5)CC4)c3n2)cc1OC` [Example 173, 2-amino-6-(3,4-dimethoxyphenyl)-4-((3-trifluoromethylphenyl)-piperazin-1-yl)pteridine], the half-maximal inhibitory concentration (IC50) in experiment [1] turned out to be 4600 nM; in experiment [2], 700 nM.

As to `COc1ccc(-c2cnc3nc(N)nc(N4CCN(c5ccc(C(F)(F)F)cc5)CC4)c3n2)cc1OC` [Example 180, 2-amino-6-(3,4-dimethoxyphenyl)-4-((4-trifluoromethylphenyl)-piperazin-1-yl)pteridine], the results for the half-maximal inhibitory concentration (IC50) in experiment [3] and in experiment [1] were 1400 nM and 4400 nM, respectively.

As for `COc1ccc(-c2cnc3nc(N)nc(N4CCN(C(=O)Nc5cccc(Cl)c5)CC4)c3n2)cc1OC` [Example 193, 2-amino-4-(N-3-chloro-phenyl-carbamoyl-piperazin-1-yl)-6-(3,4-dimethoxyphenyl)pteridine], the IC50 in experiment [3] turned out to be 500 nM; in experiment [2] it was 36 nM.

Take `COc1ccc(-c2cnc3nc(N)nc(N4CCN(C(=O)Nc5cccc(C(F)(F)F)c5)CC4)c3n2)cc1OC` [Example 195, 2-amino-4-(N-3-trifluoromethyl-phenyl-carbamoyl-piperazin-1-yl)-6-(3,4-dimethoxyphenyl)pteridine]: the IC50 in experiment [3] came to 700 nM; in experiment [2], 36 nM.

In the case of `COc1cc(-c2cnc3nc(N)nc(N4CCN(c5ccc(C)cc5)CC4)c3n2)ccc1O` [Example 206], the results for the half-maximal inhibitory concentration (IC50) in experiment [3] and in experiment [2] were 700 nM and 500 nM, respectively.
